The values that follow come from patent publication US12479838B2, “D3 receptor agonist compounds; methods of preparation; intermediates thereof; and methods of use thereof” (THE UNITED STATES OF AMERICA, AS REPRESENTED BY THE …, priority 2019, dated 2025).

Structures are written as SMILES. Where two headings read alike, the source gives them in different places. Some results are limits rather than exact numbers.

Experiment [1] has as its target human D2LR (Homo sapiens (Human), UniProt P14416). The experiment is described as follows: Radioligand competition binding vs. [3H]-(R)-(+)-7-OH-DPAT, hD2R. As to conditions: vs. [3H]-(R)-(+)-7-OH-DPAT.
Experiment [2] addresses human D3R (Homo sapiens (Human), UniProt P35462). The experiment is described as follows: Radioligand competition binding vs. [3H]-(R)-(+)-7-OH-DPAT, hD3R. As to conditions: vs. [3H]-(R)-(+)-7-OH-DPAT; for D4R/D3R / D2R/D3R: ratio of Ki; for D2R/D3R: D3R selectivity over D2R.
Experiment [3] addresses hD1R (Homo sapiens (Human), UniProt P21728). The experiment is described as follows: Off-target competition binding vs. [3H]-SCH23390, hD1R. The note with it: read-out: hD1R Ki ± SEM.
The target of experiment [4] is hμOR (Homo sapiens (Human), UniProt P35372). The experiment is described as follows: Off-target competition binding vs. [3H]-DAMGO, hμOR. The note with it: read-out: hμOR Ki ± SEM.
Experiment [5] has as its target human D4.4 (Homo sapiens (Human), UniProt P21917). The experiment is described as follows: Radioligand competition binding vs. [3H]-(R)-(+)-7-OH-DPAT, hD4R. The note with it: HEK293 cells stably expressing hD4R, read-out: D4R Ki ± SEM.
The target in experiment [6] is hD2LR (Homo sapiens (Human), UniProt P14416). The experiment is described as follows: Competition binding vs. antagonist [3H]-N-methylspiperone, D2R. As to conditions: read-out: hD2LR Ki ± SEM.
For experiment [7], the target named is hD3R (Homo sapiens (Human), UniProt P35462). The experiment is described as follows: Competition binding vs. antagonist [3H]-N-methylspiperone, D3R. As to conditions: read-out: hD3R Ki ± SEM; vs. antagonist [3H]-N-methylspiperone.
Where [8] appears, read: HEK293, read-out: hD2LR Ki ± SEM.
Where [9] appears, read: HEK293, read-out: hD3R Ki ± SEM.
The mark [10] stands for this setting: vs. [3H]-DAMGO, HEK293 membranes, >100 = <50% inhibition at 100 μM.
The mark [11] stands for this setting: HEK293 cells stably expressing hD3R, read-out: D3R Ki ± SEM.
[12] abbreviates: HEK293 cells stably expressing hD2R, read-out: D2R Ki ± SEM.

Chain of human D2LR (P14416 whole entry): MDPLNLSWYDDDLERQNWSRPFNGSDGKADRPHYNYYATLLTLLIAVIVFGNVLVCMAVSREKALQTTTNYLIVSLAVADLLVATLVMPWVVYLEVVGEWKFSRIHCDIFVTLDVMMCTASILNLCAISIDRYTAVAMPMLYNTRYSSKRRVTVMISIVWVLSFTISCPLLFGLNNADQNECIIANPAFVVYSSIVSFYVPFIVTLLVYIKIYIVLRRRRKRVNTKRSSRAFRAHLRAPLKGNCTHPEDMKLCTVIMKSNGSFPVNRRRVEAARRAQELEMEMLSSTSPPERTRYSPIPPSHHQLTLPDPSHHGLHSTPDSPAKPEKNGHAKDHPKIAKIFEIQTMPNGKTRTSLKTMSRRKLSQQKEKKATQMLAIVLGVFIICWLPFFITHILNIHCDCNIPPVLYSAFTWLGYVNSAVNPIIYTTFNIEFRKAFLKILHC
Chain of hD2LR (P14416 whole entry): as above
Chain of human D4.4 (P21917 whole entry): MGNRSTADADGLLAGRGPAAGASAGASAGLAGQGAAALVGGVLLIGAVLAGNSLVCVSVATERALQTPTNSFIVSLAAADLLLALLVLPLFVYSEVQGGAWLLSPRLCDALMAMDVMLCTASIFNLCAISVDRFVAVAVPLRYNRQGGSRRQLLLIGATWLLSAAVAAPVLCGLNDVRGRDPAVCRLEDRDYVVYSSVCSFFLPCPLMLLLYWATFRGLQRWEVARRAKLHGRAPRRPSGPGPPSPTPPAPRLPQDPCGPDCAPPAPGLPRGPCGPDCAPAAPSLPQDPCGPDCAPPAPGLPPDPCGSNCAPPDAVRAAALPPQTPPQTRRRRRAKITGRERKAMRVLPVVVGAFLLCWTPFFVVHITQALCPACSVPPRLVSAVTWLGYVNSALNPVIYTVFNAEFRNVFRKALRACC
Chain of hμOR (P35372 whole entry): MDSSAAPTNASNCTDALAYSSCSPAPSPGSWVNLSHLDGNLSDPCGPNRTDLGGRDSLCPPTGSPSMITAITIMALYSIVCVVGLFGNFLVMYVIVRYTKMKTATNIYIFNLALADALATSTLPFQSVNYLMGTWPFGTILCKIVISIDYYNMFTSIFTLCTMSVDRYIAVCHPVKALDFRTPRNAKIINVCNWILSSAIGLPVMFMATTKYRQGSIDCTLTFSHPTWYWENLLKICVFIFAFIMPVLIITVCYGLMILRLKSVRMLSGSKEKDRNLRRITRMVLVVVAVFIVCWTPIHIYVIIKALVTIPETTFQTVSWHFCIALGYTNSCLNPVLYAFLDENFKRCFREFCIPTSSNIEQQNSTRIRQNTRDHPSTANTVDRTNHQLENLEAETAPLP
Chain of hD1R (P21728 whole entry): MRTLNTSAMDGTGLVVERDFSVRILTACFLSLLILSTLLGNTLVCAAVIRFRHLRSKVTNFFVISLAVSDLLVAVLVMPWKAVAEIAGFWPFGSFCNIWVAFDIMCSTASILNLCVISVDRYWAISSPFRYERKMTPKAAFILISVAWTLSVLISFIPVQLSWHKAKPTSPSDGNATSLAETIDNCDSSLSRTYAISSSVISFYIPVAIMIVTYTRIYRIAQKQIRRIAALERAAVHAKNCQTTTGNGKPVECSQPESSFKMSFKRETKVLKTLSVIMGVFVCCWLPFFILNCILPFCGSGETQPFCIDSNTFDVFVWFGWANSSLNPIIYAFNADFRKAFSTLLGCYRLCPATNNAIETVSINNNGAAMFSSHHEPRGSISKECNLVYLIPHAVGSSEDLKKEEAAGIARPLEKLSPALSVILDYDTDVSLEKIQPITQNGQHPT
Chain of human D3R (P35462 whole entry): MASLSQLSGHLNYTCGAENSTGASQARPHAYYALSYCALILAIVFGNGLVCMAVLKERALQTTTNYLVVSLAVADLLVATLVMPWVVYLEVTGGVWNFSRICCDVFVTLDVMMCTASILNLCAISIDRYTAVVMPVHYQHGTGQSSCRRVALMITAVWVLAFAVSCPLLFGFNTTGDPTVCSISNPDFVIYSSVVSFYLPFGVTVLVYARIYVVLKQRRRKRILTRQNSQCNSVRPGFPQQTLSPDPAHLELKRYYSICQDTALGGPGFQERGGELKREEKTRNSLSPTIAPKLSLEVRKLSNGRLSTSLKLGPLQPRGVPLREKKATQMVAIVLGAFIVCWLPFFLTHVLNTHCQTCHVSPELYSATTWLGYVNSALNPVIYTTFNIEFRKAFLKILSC
Chain of hD3R (P35462 whole entry): as above

A word on the Ki: it is the dissociation constant of the complex between target and ligand, obtained from inhibition or displacement. As for `CCCN1CCO[C@H]2c3cc(O)ccc3OC[C@@H]21` [(−)-(4aS,10bS)-2, reference compound], the inhibition constant (Ki) in experiment [1] (setting [8]) was 7580 ± 2620 nM; in experiment [2] (setting [9]), 5620 nM; in experiment [3], over 100000 nM; in experiment [4] (setting [10]) it was 77900 ± 41400 nM. For the same molecule, the “loss of D3R affinity relative to (+)-(4aR,10bR)-2” value in experiment [2] is over 3000 fold.
For `CCCN1CC(c2ccc(N)nc2)OC[C@@H]1C` (stereo partly shown) [AB03-02, reference compound], the Ki in experiment [1] (setting [8]) was 1740 ± 348 nM; in experiment [2] (setting [11]) it was 185 ± 20.5 nM; in experiment [5], 292 ± 22.2 nM. In experiment [2], the D4R/D3R is 1.58. In experiment [2], the D2R/D3R is given as 9.41.
For `C[C@H]1CO[C@@H](c2ccc(N)nc2)CN1C/C=C1\CCC(CNC(=O)c2cc3ccccc3[nH]2)C1` (stereo partly shown) [FOB04-02], the Ki in experiment [1] (setting [12]) stood at 55.9 ± 4.78 nM; in experiment [2] (setting [11]), 7.41 ± 0.323 nM; in experiment [6], 7920 ± 772 nM; in experiment [7], 104 ± 7.65 nM.
Take `C[C@H]1CO[C@@H](c2ccc(N)nc2)CN1CC(O)CCNC(=O)c1cc2ccccc2[nH]1` (stereo partly shown) [FOB02-67]: the inhibition constant (Ki) is 1010 ± 162 nM in experiment [1] (setting [12]), 423 ± 164 nM in experiment [2] (setting [11]) and 739 ± 70.1 nM in experiment [4] (setting [10]).
For `C[C@H]1CO[C@@H](c2ccc(N)nc2)CN1CCn1cc(CNC(=O)c2cc3ccccc3[nH]2)nn1` [AB08-03, N-((1-(2-((2S,5S)-2-(6-aminopyridin-3-yl)-5-methylmorpholino)ethyl)-1H-1,2,3-triazol-4-yl)methyl)-1H-indole-2-carboxamide], the Ki in experiment [6] is 32300 ± 12700 nM; in experiment [7], 2780 ± 1020 nM.
Turning to `C[C@H]1CO[C@@H](c2ccc(N)nc2)CN1CC(=O)N1CCC(CNC(=O)c2cc3ccccc3[nH]2)C1` (stereo partly drawn) [AB07-80, N-((1-(2-((2S,5S)-2-(6-aminopyridin-3-yl)-5-methylmorpholino)acetyl)pyrrolidin-3-yl)methyl)-1H-indole-2-carboxamide], the Ki in experiment [1] (setting [12]) was determined as 1840 nM; in experiment [2] (setting [11]), 2010 nM; in experiment [6], 7930 ± 1190 nM; in experiment [7], 2410 ± 287 nM.
On to `C[C@H]1COC(c2ccc(N)nc2)CN1CCCCOc1ccc2c(c1)NC(=O)CC2` (stereo partly drawn) [AB04-35, 7-(4-((5S)-2-(6-aminopyridin-3-yl)-5-methylmorpholino)butoxy)-3,4-dihydroquinolin-2(1H)-one], for which the Ki in experiment [1] (setting [12]) worked out at 113 ± 22.7 nM; in experiment [2] (setting [11]), 173 ± 48.2 nM; in experiment [5], 3220 nM. Also, the D4R/D3R in experiment [2] was found to be 18.6. Besides, the D2R/D3R in experiment [2] is 0.653.
Turning to `CCCN1CCO[C@@H]2c3cc(O)ccc3OC[C@H]21` [(+)-PD128,907, (4aR,10bR)-4-propyl-3,4,4a,10b-tetrahydro-2H,5H-chromeno[4,3-b][1,4]oxazin-9-ol, reference compound], the values for the Ki in experiment [1] (setting [12]), in experiment [2] (setting [11]) and in experiment [5] were 20.5 ± 2.87 nM, 1.69 ± 0.0892 nM and 26.6 ± 3.97 nM, respectively. The D4R/D3R in experiment [2] amounted to 15.7. Moreover, the D2R/D3R in experiment [2] came to 12.1.
Turning to `CCCN1CCO[C@@H]2c3cc(O)ccc3OC[C@H]21` [(+)-(4aR,10bR)-2, reference compound], the Ki in experiment [1] (setting [8]) was 28 ± 5.59 nM; in experiment [2] (setting [9]), 1.67 ± 0.257 nM; in experiment [3], over 100000 nM; in experiment [4] (setting [10]), 36600 ± 19800 nM.
Regarding `O=C(NCCCCN1CCOC2c3cc(O)ccc3OC[C@@H]21)c1cc2ccccc2[nH]1` (stereo in doubt) [rel-cis-12], the Ki in experiment [1] (setting [8]) was 9420 ± 3440 nM; in experiment [2] (setting [9]), 13800 nM; in experiment [3] it was over 100000 nM; in experiment [4], 12300 ± 2880 nM.
Consider `CCCN(CCC)c1ccc(C2CN(CCC)[C@@H](C)CO2)cn1` (stereo partly drawn) [AB04-52, 5-((5S)-5-methyl-4-propylmorpholin-2-yl)-N,N-dipropylpyridin-2-amine], for which the results for the Ki in experiment [1] (setting [12]), in experiment [2] (setting [11]) and in experiment [5] were 8240 nM, 21100 nM and over 100000 nM, respectively. The D4R/D3R in experiment [2] was over 4.74. In experiment [2], the D2R/D3R is reported as 0.391.
For the molecule `CCCN1CCO[C@@H]2c3cc(OCCCCNC(=O)c4cc5ccccc5o4)ccc3OC[C@H]21` [SLC01-26, N-(4-(((4aR,10bR)-4-propyl-3,4,4a,10b-tetrahydro-2H,5H-chromeno[4,3-b][1,4]oxazin-9-yl)oxy)butyl)benzofuran-2-carboxamide], the Ki in experiment [1] (setting [12]) turned out to be 9450 nM; in experiment [2] (setting [11]), 6010 nM. In addition, the D2R/D3R in experiment [2] came to 1.57.
